Measured values: PMC10452110, “Indole-3-Acetamido-Polyamines as Antimicrobial Agents and Antibiotic Adjuvants” (Biomolecules, 2023)

Legend:
Cytotoxicity assay = format: cell-based; conditions: human; HEK293 cells; mean (n = 2); read-out: Cytotoxicity: concentration of compound at 50% cytotoxicity (IC50)
Protocol: Cytotoxicity assays were conducted using the protocols previously reported.

[1] = system: Candida albicans (ATCC 90028); experiment: Intrinsic antifungal activity (MIC) against C. albicans; format: cell-based; conditions: ATCC90028, C. albicans ATCC 90028, mean (n = 2), read-out: MIC C. a
Summary of the method: (§1)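 Bacterial susceptibility was determined following previously reported protocols. The antifungal evaluations were carried out at the Community for Open Antimicrobial Drug Discovery (University of Queensland, Australia) under its standard protocols.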

[2] = system: Pseudomonas aeruginosa (ATCC 27853); experiment: Intrinsic antimicrobial activity (MIC) against P. aeruginosa; format: cell-based; conditions: ATCC27853, P. aeruginosa ATCC 27853, mean (n = 3), read-out: MIC P. a
Summary of the method: (§2)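 Susceptibility testing: bacteria per earlier published methods; fungi per CO-ADD standard protocols (University of Queensland).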

E. coli ATCC 25922 = experiment: Enhancement of erythromycin action against E. coli; format: cell-based, Escherichia coli; conditions: erythromycin at 10.9 µM
Protocol: (§3) Antibiotic enhancer concentrations were determined using previously reported protocols.

P. aeruginosa ATCC 27853 = experiment: Enhancement of doxycycline action against P. aeruginosa; format: cell-based, Pseudomonas aeruginosa; conditions: doxycycline at 4.5 µM
Protocol: as §3

[3] = system: Staphylococcus aureus (ATCC 25923); experiment: Intrinsic antimicrobial activity (MIC) against S. aureus; format: cell-based; conditions: ATCC25923, S. aureus ATCC 25923, mean (n = 3), read-out: MIC S. a
Summary of the method: as §2

[4] = system: Klebsiella pneumoniae (ATCC 700603); experiment: Intrinsic antimicrobial activity (MIC) against K. pneumoniae; format: cell-based; conditions: ATCC700603, K. pneumoniae ATCC 700603, mean (n = 2), read-out: MIC K. p
Protocol: (§4) The susceptibility of bacterial strains Staphylococcus aureus (ATCC 25923), Escherichia coli (ATCC 25922) and Pseudomonas aeruginosa (ATCC 27853) to antibiotics and compounds was determined using previously reported protocols. Additional antimicrobial evaluation against MRSA (ATCC 43300), Klebsiella pneumoniae (ATCC 700603), Acinetobacter baumannii (ATCC 19606), Candida albicans (ATCC 90028) and Cryptococcus neoformans (ATCC 208821) was undertaken at the Community for Open Antimicrobial Drug Discovery at The University of Queensland (Australia) according to their standard protocols, as reported previously.

human red blood cells = experiment: Hemolytic assay; format: cell-based; conditions: mean (n = 2)
Protocol: Hemolysis assays were conducted using the protocols previously reported.

[5] = system: Escherichia coli (ATCC 25922); experiment: Intrinsic antimicrobial activity (MIC) against E. coli; format: cell-based; conditions: ATCC25922, E. coli ATCC 25922, mean (n = 3), read-out: MIC E. c
Summary of the method: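 MIC values come from two sources: bacteria tested by previously reported protocols, and Candida and Cryptococcus tested at the Community for Open Antimicrobial Drug Discovery under standard conditions.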

[6] = system: Cryptococcus neoformans (ATCC 208821); experiment: Intrinsic antifungal activity (MIC) against C. neoformans; format: cell-based; conditions: ATCC208821, C. neoformans ATCC 208821, mean (n = 2), read-out: MIC C. n
Summary of the method: as §1

MRSA (ATCC 43300) = experiment: Intrinsic antimicrobial activity (MIC) against MRSA; format: cell-based; conditions: Staphylococcus aureus, MRSA ATCC 43300; mean (n = 2); read-out: MIC MRSA
Summary of the method: as §2

[7] = system: Acinetobacter baumannii (ATCC 19606); experiment: Intrinsic antimicrobial activity (MIC) against A. baumannii; format: cell-based; conditions: ATCC19606, A. baumannii ATCC 19606, mean (n = 2), read-out: MIC A. b
Protocol: as §4

Compound	IC50 (Cytotoxicity assay)	MIC [1]	MIC [2]	Eryth/E. c: concentration required to restore erythromycin activity (combination MIC) (E. coli ATCC 25922)	Dox/P. a fold change (ratio between intrinsic MIC of the test compound and combination MIC) (P. aeruginosa ATCC 27853)	Dox/P. a: concentration required to restore doxycycline activity (combination MIC) (P. aeruginosa ATCC 27853)	MIC [3]	MIC [4]	Hemolysis: concentration of compound at 10% hemolytic activity (HC10) (human red blood cells)	MIC [5]	MIC [6]	MIC (MRSA (ATCC 43300))	MIC [7]
O=C(Cc1c[nH]c2ccc(Br)cc12)NCCCNCCCCCCCCCCCCNCCCNC(=O)Cc1c[nH]c2ccc(Br)cc12.O=C(O)C(F)(F)F.O=C(O)C(F)(F)F [Compound 15f, N^1,N^12-Bis(3-(2-(5-bromo-1H-indol-3-yl)acetamido)propyl)dodecane-1,12-diaminium 2,2,2-trifluoroacetate]	4.75 µM	≤ 0.25 µM	197 µM	24.6 µM	2 fold	98.5 µM	6.16 µM	> 32 µM	≤0.25 µM	12.3 µM	≤ 0.25 µM	≤ 0.25 µM	7.88 µM
COc1ccc2[nH]cc(CC(=O)NCCCNCCCCCCNCCCNC(=O)Cc3c[nH]c4ccc(OC)cc34)c2c1.O=C(O)C(F)(F)F.O=C(O)C(F)(F)F [Compound 16b, N^1,N^6-Bis(3-(2-(5-methoxy-1H-indol-3-yl)acetamido)propyl)hexane-1,6-diaminium 2,2,2-trifluoroacetate]	> 38 µM	> 38 µM	> 200 µM	50 µM	> 8 fold	25 µM	50 µM	> 38 µM	>38 µM	100 µM	≤ 0.3 µM	38 µM	> 38 µM
COc1ccc2[nH]cc(CC(=O)NCCCNCCCCCCCNCCCNC(=O)Cc3c[nH]c4ccc(OC)cc34)c2c1.O=C(O)C(F)(F)F.O=C(O)C(F)(F)F [Compound 16c, N^1,N^7-Bis(3-(2-(5-methoxy-1H-indol-3-yl)acetamido)propyl)heptane-1,7-diaminium 2,2,2-trifluoroacetate]	> 38 µM	> 38 µM	> 200 µM	50 µM	–	12.5 µM	> 200 µM	> 38 µM	>38 µM	25 µM	2.36 µM	> 38 µM	> 38 µM
COc1ccc2[nH]cc(CC(=O)NCCCNCCCCCCCCNCCCNC(=O)Cc3c[nH]c4ccc(OC)cc34)c2c1.O=C(O)C(F)(F)F.O=C(O)C(F)(F)F [Compound 16d, N^1,N^8-Bis(3-(2-(5-methoxy-1H-indol-3-yl)acetamido)propyl)octane-1,8-diaminium 2,2,2-trifluoroacetate]	> 37 µM	> 37 µM	100 µM	6.25 µM	–	6.25 µM	25 µM	> 37 µM	>37 µM	6.25 µM	≤ 0.29 µM	2.32 µM	> 37 µM
COc1ccc2[nH]cc(CC(=O)NCCCNCCCCCCCCCCNCCCNC(=O)Cc3c[nH]c4ccc(OC)cc34)c2c1.O=C(O)C(F)(F)F.O=C(O)C(F)(F)F [Compound 16e, N^1,N^10-Bis(3-(2-(5-methoxy-1H-indol-3-yl)acetamido)propyl)decane-1,10-diaminium 2,2,2-trifluoroacetate]	> 36 µM	2.25 µM	112 µM	28.1 µM	8 fold	14.1 µM	7.03 µM	> 36 µM	>36 µM	14.1 µM	≤ 0.28 µM	≤ 0.28 µM	> 36 µM
COc1ccc2[nH]cc(CC(=O)NCCCNCCCCCCCCCCCCNCCCNC(=O)Cc3c[nH]c4ccc(OC)cc34)c2c1.O=C(O)C(F)(F)F.O=C(O)C(F)(F)F [Compound 16f, N^1,N^12-Bis(3-(2-(5-methoxy-1H-indol-3-yl)acetamido)propyl)dodecane-1,12-diaminium 2,2,2-trifluoroacetate]	> 35 µM	35 µM	109 µM	27.3 µM	8 fold	13.6 µM	6.82 µM	> 35 µM	>35 µM	13.6 µM	≤ 0.27 µM	≤ 0.27 µM	> 35 µM
Cc1ccc2[nH]cc(CC(=O)NCCCNCCCCNCCCNC(=O)Cc3c[nH]c4ccc(C)cc34)c2c1.O=C(O)C(F)(F)F.O=C(O)C(F)(F)F [Compound 17a, N^1,N^4-Bis(3-(2-(5-methyl-1H-indol-3-yl)acetamido)propyl)butane-1,4-diaminium 2,2,2-trifluoroacetate]	> 41 µM	20.7 µM	> 259 µM	64.7 µM	> 2 fold	129 µM	129 µM	> 41 µM	8.46 µM	> 259 µM	≤ 0.32 µM	≤ 0.32 µM	> 41 µM
Cc1ccc2[nH]cc(CC(=O)NCCCNCCCCCCNCCCNC(=O)Cc3c[nH]c4ccc(C)cc34)c2c1.O=C(O)C(F)(F)F.O=C(O)C(F)(F)F [Compound 17b, N^1,N^6-Bis(3-(2-(5-methyl-1H-indol-3-yl)acetamido)propyl)hexane-1,6-diaminium 2,2,2-trifluoroacetate]	> 40 µM	40 µM	> 250 µM	31.2 µM	> 8 fold	31.2 µM	31.2 µM	> 40 µM	23.1 µM	250 µM	≤ 0.31 µM	≤ 0.31 µM	> 40 µM
Cc1ccc2[nH]cc(CC(=O)NCCCNCCCCCCCNCCCNC(=O)Cc3c[nH]c4ccc(C)cc34)c2c1.O=C(O)C(F)(F)F.O=C(O)C(F)(F)F [Compound 17c, N^1,N^7-Bis(3-(2-(5-methyl-1H-indol-3-yl)acetamido)propyl)heptane-1,7-diaminium 2,2,2-trifluoroacetate]	> 39 µM	39.3 µM	> 245 µM	61.4 µM	> 2 fold	123 µM	61.4 µM	> 39 µM	>39 µM	245 µM	< 0.2 µM	< 0.2 µM	> 39 µM
Cc1ccc2[nH]cc(CC(=O)NCCCNCCCCCCCCCCNCCCNC(=O)Cc3c[nH]c4ccc(C)cc34)c2c1.O=C(O)C(F)(F)F.O=C(O)C(F)(F)F [Compound 17e, N^1,N^10-Bis(3-(2-(5-methyl-1H-indol-3-yl)acetamido)propyl)decane-1,10-diaminium 2,2,2-trifluoroacetate]	> 37 µM	≤ 0.29 µM	233 µM	29.2 µM	1 fold	233 µM	7.29 µM	> 37 µM	3.19 µM	58.3 µM	≤ 0.29 µM	≤ 0.29 µM	37 µM
